Here are results for one compound from US11229643B2, “Combinations of FGFR4 inhibitors and bile acid sequestrants” (NOVARTIS AG, priority 2016, dated 2022).

The test system of one data set is advanced HCC. Particulars: patients with advanced HCC; cited from earlier work.
Data set [1] in a line: Dog cross-over study: plasma miR-122 levels (Taqman, standard curve method). Type of data set: in vivo, Beagle dogs. The method, then:
Plasma miR-122 levels, a liver enriched microRNA used as biomarker of liver injury (Starkey Lewis P J et al., Clin Pharmacol Ther, 2012, 291-293), were determined. miR-122 is considered as a liver-specific marker.
Small RNA was extracted from 50 μl of plasma by using the miRNeasy/MinElute kit and following the instructions of the manufacturer (Qiagen). Elution of small RNA was realized in 14 μl of nucleic acid-free H2O.
3.2 μl of eluted small RNA was reverse transcribed into cDNA by using the Megaplex RT primer human pool A and B and the Taqman MicorRNA Reverse Transcription kit (Applied Biosystems/Life Technologies, reference 4366596) and following the instructions of the manufacturer.
2.5 μl of cDNA was preamplified by using the Megaplex Preamp primer human pool A and B (Applied Biosystems/Life Technologies, reference 4399201 and 4399233) and the Taqman PreAmp Master mix (Applied Biosystems/Life Technologies, reference 4391128) and following the instructions of the manufacturer.
microRNA miR-122 was amplified from preamplified cDNA by using a commercially available validated Taqman assay (reference 002245) diluted in the Taqman MasterMixII (Applied Biosystems/Life Technologies) and following the instructions of the manufacturer.
The relative quantification of plasmatic microRNA levels was performed using the standard curve method to generate expression values as number of molecules.
Statistical significance of mRNA measurements was assessed using the two-sample unequal variance, two-tailed distribution (hetero-scedastic Student's t-test, Excel). Coefficients of variation with a P value <0.05 were considered to be statistically significant.

Data set [2] in a line: Dog cross-over study of Compound A with or without cholestyramine: serum ALT activity. Type of data set: in vivo, Beagle dogs. The note with it: Cpd A 5 mg/kg/day. The method, then:
Male Beagle dogs were obtained from Marshall BioResources (North Rose, N.Y.). For the study, all animals were nave to treatment. All animals used in the study were healthy and suitable for use. The dose volume for Cpd A and its vehicle was 5 mL/kg. For CHO, the dosing aliquot was dispersed in 75 mL total animal drinking water.
For the study, a dosing paradigm was followed with initial loading dose of either vehicle or CHO on the last day of pretest (day −1), and dosing of either vehicle or CHO on days 1-7.
N-(5-cyano-4-((2-methoxyethyl)amino)pyridin-2-yl)-7-formyl-6-((4-methyl-2-oxopiperazin-1-yl)methyl)-3,4-dihydro-1,8-naphthyridine-1(2H)-carboxamide dosing was initiated on day 8, with the second dosing event of each day for either vehicle or CHO. Food was presented to the animals after the second daily dosing event. Animals were not dosed on day 15. Dosing was restarted on day 24 and the dose groups crossed over on day 38-44, with the last day of dosing on day 44.
Clinical observations, twice-weekly body weights, and daily food consumption determinations were performed.
Fecal samples were collected for bile acid (BA) analysis once during pretest and on days 7, 10, 14, 17, 24, 28, 35, 42, and 49.
Plasma was collected from all animals for bile acid profiling during the study, concurrent with clinical pathology and/or toxicokinetic sampling as follows: at approximately 3 hours postdose (post vehicle, CHO or Cpd A, as appropriate) on days 1, 3, 7, 8, 11, 14, 15, 18, 21, 23, 25, 28, 31, 35, 38, 42, 45, 49, and 52. On days 8, 14, 25, and 39 only, samples were collected at predose and approximately 0.5, 1, 3, 7, and 24 hours postdose (post Cpd A dosing). In addition, on day 44, bile acid biomarker samples were collected at 3, 7, and 24 hours postdose (concurrent with the last toxicokinetic blood collection).

Another data set has as its system 456 kinases. The note with it: cited from earlier work.
A short description of data set [3]: 4-week dog study, ALT and AST. The class given is in vivo. From the text:
The maximal increase was 6-fold and ≤2-fold for ALT and AST respectively (relative to pre-dose values), and occurred during week 2 of the study. Generally, there was no further increase in transaminase levels despite continued dosing over the 4-weeks indicating a level of adaptation to these pharmacologically mediated effects.

Where [4] appears, read: relative to pre-dose values, during week 2 of 4-week dog study.

For the compound `COCCNc1cc(NC(=O)N2CCCc3cc(CN4CCN(C)CC4=O)c(C=O)nc32)ncc1C#N` [Compound A, N-(5-cyano-4-((2-methoxyethyl)amino)pyridin-2-yl)-7-formyl-6-((4-methyl-2-oxopiperazin-1-yl)methyl)-3,4-dihydro-1,8-naphthyridine-1(2H)-carboxamide], in the data set with advanced HCC, the clinical activity entry was “promising clinical activity”. In addition, the “increase in miR-122 levels, maximum average” value in data set [1] (recovery period study day 15-23, at day 21, compared with study day 1-7) is no more than 5.4 fold; in data set [1] (study day 8-14, at day 14, compared with study day 1-7), no more than 2.5 fold; in data set [1] (study days 25-38, animal 2006, at day 31), no more than 63 fold. Also, the “increase in miR-122 levels, peak” value in data set [1] (recovery study days 45-52, Group 1 animal 1001, day 49) is reported as no more than 22.2 fold; in data set [1] (recovery study days 45-52, Group 1 animal 1003, day 49), no more than 47.9 fold; in data set [1] (recovery study days 45-52, Group 1 animal 1005, day 49), no more than 16.4 fold; in data set [1] (recovery study days 45-52, Group 1 animal 1006, day 49) it was no more than 40.1 fold. The “change in miR122 compared to respective controls, overall” value in data set [1] (some animals) is recorded as “minimal to moderate increases”. For the same compound, in data set [1] (study days 25-38, animal 2003, at day 38), the “increase in miR-122 levels, maximum” value is no more than 151 fold. Besides, the “increase in miR-122 levels, average” value in data set [1] (study days 39-42, following the second cross-over) is recorded as no more than 7.8 fold. In addition, the “increase in serum ALT activity” value in data set [2] (compared with pretest, first dosing period (from day 8)) is reported as 3.5 fold; in data set [2] (following the first cross-over), 6 fold; in data set [2] (following the second cross-over), 3.5 fold. The “change in serum ALT activity, in general” value in data set [2] (dogs) is “minimal to moderate increases”. In the data set on 456 kinases, the “targets found in kinome wide scan” value was “FGFR4 was the only target”. The “recovery of ALT/AST increases evident” value in data set [3] (day following cessation of Compound A administration) was no more than 8 days. Further, the “maximal increase in ALT” value in data set [3] (setting [4]) amounted to 6 fold. The “maximal increase in AST” value in data set [3] (setting [4]) is listed as no more than 2 fold.
